Legend:
atopic dermatitis [1] = conditions: cited from earlier work
atopic dermatitis [2] = conditions: 0.2%, 0.6% and 1.0% creams; 260 patients; cited from earlier work
[3] = 15, 45, and 120 mg/kg/day orally, 39 weeks; cited from earlier work
atopic dermatitis [4] = test: Topical treatment of atopic dermatitis lesions in individual subjects (case reports, Examples 11-15); assay type: in vivo, human; conditions: topical application to atopic dermatitis lesion
Text: The product was applied on an irregular basis with the longest exposure time at night.
A subject with an atopic dermatitis lesion on the palm of the right hand is presently being treated with the invention containing betamethasone and clemastine hydrogen fumarate.

[5] = 192 adults with moderate to severe AD

| Compound | days on which corticosteroid medication for flares was used (atopic dermatitis [1]; 24-week treatment period) | median time to first flare (atopic dermatitis [1]; [5]) [days] | patients who did not experience a flare (atopic dermatitis [1]; [5]) [%] | efficacy vs vehicle (atopic dermatitis [2]) | finding associated with oral dosing [3] | outcome of the lesion (atopic dermatitis [4]) |
| --- | --- | --- | --- | --- | --- | --- |
| CC[C@@H]1/C=C(\C)C[C@H](C)C[C@H](OC)[C@H]2O[C@@](O)(C(=O)C(=O)N3CCCC[C@H]3C(=O)O[C@H](/C(C)=C/[C@@H]3CC[C@H](Cl)[C@H](OC)C3)[C@H](C)[C@@H](O)CC1=O)[C@H](C)C[C@@H]2OC [pimecrolimus] | 14.2 % of the days | 144 | 44.8 | significantly more effective than vehicle | immunosuppression-related lymphoproliferative disorders | – |
| betamethasone propionate | – | – | – | – | – | no improvement |
